Results from ChEMBL document CHEMBL1127671, “Molecular modeling studies of aldose reductase inhibitors” (J Med Chem, 1994).
pIC50: −log10 of the molar value.

Target: Aldo-keto reductase family 1 member B1 (Rattus norvegicus, UniProt P07943)
Assay: Inhibitory activity against purified rat lens aldose reductase (RLAR)

| pIC50 | Compound |
| --- | --- |
| 6.37 | O=C(O)CC1c2cc(F)ccc2-c2ccc(F)cc21 |
| 5.46 | O=C1NC(=O)C2(N1)c1ccccc1-c1ccccc12 |
| 3.66 | c1ccc2c(c1)-c1ccccc1C2c1nnn[nH]1 |
| 6.89 | CC(C)c1cccc2c1OC(C(C)C)C(=S)N2CC(=O)O (stereo not drawn) |
| 4.80 | O=C(O)C=C1c2cc(F)ccc2-c2ccc(F)cc21 |
| 3.74 | O=C(O)C1c2ccccc2-c2ccccc21 |
| 6.07 | O=C(O)CC1c2ccccc2-c2ccc(F)cc21 (stereo not drawn) |
| 2.83 | c1ccc2c(c1)-c1ccccc1C2Cc1nnn[nH]1 |
| 4.25 | O=C(O)/C=C1\c2ccccc2-c2ccc(F)cc21 |
| 5.05 | O=C(O)CC1c2ccccc2-c2ccccc21 |
| 7.80 | O=C(O)Cc1nn(Cc2ccc(Br)cc2F)c(=O)c2ccccc12 [PONALRESTAT] |
| 8.36 | O=C(O)Cn1c(=O)n(Cc2ccc(Br)cc2F)c(=O)c2ccc(Cl)cc21 [ZENARESTAT] |

| Compound | pIC50 |
| --- | --- |
| O=C(O)C1CC12c1ccccc1-c1ccccc12 (stereo not drawn) | 4.93 |
